One experiment has as its system leukocyte migration. Briefly: LPS-induced acute lung injury model (preclinical ARDS model). The format is in vivo. Conditions: administered IP. The source says: In the bottom panel, the effect of test compounds on leukocyte migration is shown in the model. […] Free RASP are toxic, leading to inflammation and molecular dysfunction by covalently binding to cellular biomolecules, and have been linked to systemic immune-mediated and inflammatory diseases, such as NASH, inflammatory bowel disease (IBD), and other diseases. […]

For experiment [1] the following is noted: clinical trials; cited from earlier work.
In experiment [2] the test system is inflammatory cytokines and chemokines. Briefly: LPS-induced mouse model of acute sepsis, plasma cytokine profile. The note with it: for IL-10 plasma level, significance of effect: anti-inflammatory cytokine, release facilitated. It is filed as in vivo. The method, then:
FIG. 4 and FIG. 5 show the effect of compound I-1 on levels of various inflammatory cytokines in a preclinical sepsis model. In the study, lipopolysaccharide (LPS) was administered IP to mice. 30 minutes later, I-1 was administered IP or PO. Mice were sacrificed after 2 hours, and their plasma submitted for cytokine profile analysis. IP=intraperitoneally; PO=orally; mpk=mg per kg. […]
FIG. 4 and FIG. 5 show the effect of compound I-1 on levels of various inflammatory cytokines in a preclinical sepsis model. In the study, lipopolysaccharide (LPS) was administered IP to mice. 30 minutes later, I-1 was administered IP or PO. Mice were sacrificed after 2 hours, and their plasma submitted for cytokine profile analysis. IP=intraperitoneally; PO=orally. As shown in the table below, I-1 decreased several pro-inflammatory cytokines. * P≤0.05; ** P≤0.01; *** P≤0.001; **** P≤0.0001.

Experiment [3] can be described thus: dextran sulfate sodium (DSS)-induced mouse model of UC. The format is in vivo. An excerpt:
(§1) These cytokines and chemokines affect Th1, Th2, and Th17 pathways, all of which are important in immune homeostasis and disease (Kaiko et al., Immunology 123:326-338, 2007. DOI 10.1111/j.1365-2567.2007.02719.x.; Weaver et al., Annu. Rev. Pathol 8:477-512, 2013. DOI 10.1146/annurev-pathol-011110-130318).

A short description of a further experiment: rodent models of NASH. The format is in vivo. Conditions: three different rodent models of NASH.
Source text: as §1

Setting [4] is: LPS-induced acute lung injury model.
Where [5] appears, read: 100 mpk IP 30 min after LPS IP, mice, plasma after 2 hours.
Setting [6] is: 400 mpk PO 30 min after LPS IP, mice, plasma after 2 hours.
The mark [7] stands for this setting: LPS-induced mouse model of acute sepsis.

Structures are written as SMILES.

Take `CC(C)(O)c1nc2ccc(Cl)cc2cc1N` [I-2, reproxalap]: in the experiment on leukocyte migration (setting [4]), the infiltrating cells result is reported as “decreased infiltrating cells” and the lung function entry is listed as “improved lung function”. In addition, in the experiment with leukocyte migration (compared with saline and dexamethasone), the “activity in LPS-induced acute lung injury model” value is “promising activity”. In addition, the “effect in treating ocular inflammation” value in experiment [1] was “beneficial effects”.
As to `CC(C)(O)c1nc2ccccc2cc1N` [I-1], in experiment [2] (setting [5]), the “GM-CSF plasma level, significance of effect” value was “* (* P≤0.05)”; the “IFNγ plasma level, significance of effect” value is “*** (*** P≤0.001)”; the “IL-1β plasma level, significance of effect” value is “** (** P≤0.01)”; the “IL-5 plasma level, significance of effect” value is given as “**** (**** P≤0.0001)”. In addition, in experiment [2] (setting [5]), the “IL-7 plasma level, significance of effect” value is recorded as “** (** P≤0.01)”; the “IL-12 (p40) plasma level, significance of effect” value is listed as “*** (*** P≤0.001)”; the “IL-17 plasma level, significance of effect” value is “** (** P≤0.01)”; the “M-CSF plasma level, significance of effect” value was “* (* P≤0.05)”. In experiment [2] (setting [5]), the “MIP-1α plasma level, significance of effect” value is recorded as “** (** P≤0.01)”; the “MIP-1β plasma level, significance of effect” value is “** (** P≤0.01)”; the “MIP-2 plasma level, significance of effect” value is listed as “** (** P≤0.01)”; the “TNFα plasma level, significance of effect” value is listed as “* (* P≤0.05)”. Besides, in experiment [2] (setting [5]), the “VEGF plasma level, significance of effect” value was “* (* P≤0.05)” and the “IL-10 plasma level, significance of effect” value was “** (** P≤0.01)”. Also, in experiment [2] (setting [6]), the “IFNγ plasma level, significance of effect” value is “*** (*** P≤0.001)”; the “IL-1β plasma level, significance of effect” value is given as “** (** P≤0.01)”; the “IL-5 plasma level, significance of effect” value is given as “**** (**** P≤0.0001)”; the “IL-7 plasma level, significance of effect” value is “* (* P≤0.05)”. Further, in experiment [2] (setting [6]), the “IL-12 (p40) plasma level, significance of effect” value was “**** (**** P≤0.0001)”; the “IL-15 plasma level, significance of effect” value is listed as “** (** P≤0.01)”; the “IL-17 plasma level, significance of effect” value is listed as “* (* P≤0.05)”; the “M-CSF plasma level, significance of effect” value is listed as “*** (*** P≤0.001)”. In experiment [2] (setting [6]), the “MCP-1 plasma level, significance of effect” value is recorded as “** (** P≤0.01)”; the “MIP-1α plasma level, significance of effect” value is on record as “* (* P≤0.05)”; the “MIP-1β plasma level, significance of effect” value is “* (* P≤0.05)”; the “IL-10 plasma level, significance of effect” value was “** (** P≤0.01)”. In experiment [2] (setting [7]), the “release of inflammatory cytokines and chemokines” value is “inhibit the release”; the “release of the anti-inflammatory cytokine interleukin (IL)-10” value was “facilitate the release”. Moreover, the “disease parameters (body weight loss, disease activity score, colon length, colon edema, colon inflammation)” value in experiment [3] is “improved several disease parameters”. The “circulating markers of liver function and inflammation (liver inflammation, steatosis, hepatocyte ballooning, fibrosis)” value in “rodent models of NASH” is “may have beneficial effects”.

Values taken from US20230131929A1, “QUINOLINE COMPOUNDS FOR TREATING RESPIRATORY DISORDERS AND VIRAL INFECTIONS” (Aldeyra Therapeutics, Inc., priority 2020, published 2023).
